Laboratory results: PubChem BioAssay (NCI)
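A five-concentration, 48-hour dose response in 96-well plates underlies each endpoint, interpolated linearly between surrounding concentrations. GI50 marks 50% less growth. At the TGI there is no net growth.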

Tests used:
Test in all cases: NCI tumour cell line growth inhibition, 48 h
[1] = tested on: 786-0 renal
[2] = tested on: HCT-116 colon
[3] = tested on: IGROV1 ovarian
[4] = tested on: MDA-MB-435
[5] = tested on: NCI-H23 lung
[6] = tested on: OVCAR-3 ovarian
[7] = tested on: SK-MEL-28 melanoma
[8] = tested on: SR leukemia

Compound	GI50 [1] [µM]	TGI [1] [µM]	GI50 [2] [µM]	TGI [2] [µM]	GI50 [3] [µM]	TGI [3] [µM]	GI50 [4] [µM]	TGI [4] [µM]	GI50 [5] [µM]	TGI [5] [µM]	GI50 [6] [µM]	TGI [6] [µM]	GI50 [7] [µM]	TGI [7] [µM]	GI50 [8] [µM]	TGI [8] [µM]
N=c1ccc2nc3ccc(N)cc3sc-2c1	9.99	29.7	2.67	10.5	6.77	75	2.37	5.21	2.77	14.3	3.21	13.7	13.1	32.6	4.65	> 100
Cc1ccc(S(=O)(=O)c2nc(-c3ccccc3)oc2S(C)(=O)=O)cc1	1.66	3.19	1.78	3.25			2.11	4.58	6.73	22.6	1.86	3.35	1.92	3.77	2	7.69
C=C1C(=O)O[C@H]2[C@H]1CC/C(COC(=O)N[C@H]1C[C@H](O[C@H]3C[C@](O)(C(=O)CO)Cc4c(O)c5c(c(O)c43)C(=O)c3c(OC)cccc3C5=O)O[C@@H](C)[C@H]1O)=C\CC[C@@]1(C)O[C@@H]21	5.7	16.5	1.72	5.58	5.77	19	6.31	22.2	8.36	18.6	2.2	7.8	1.51	4.67	1.02	7.12
CC(/C=C/C(O)=C1/C(=O)CNC1=O)=C\[C@@H](C)[C@H]1O[C@@]2(C)O[C@H](C(=O)[C@@H]3O[C@@]32C)[C@@H]1C		36.5		39		44.9		83.1		59		44.6		38.7		
CCCc1nc(Cl)nc(Cl)c1Cl		1.43		1.3		2.14		1.41		2.04		0.534		2.05		0.529
CC(NC(=O)Cc1ccc(C(F)(F)P(=O)(OCc2ccc([N+](=O)[O-])o2)N(C)CCCCCl)cc1)c1ccc(OCC2CCCCC2)c(C(N)=O)c1 (configuration not stated)	1.77	3.97	1.93	4.11	9.93	25.5	2.69	6.73	4.11	15.3	2.31	9.82	12.2	25.9	1.76	5.03
C/C(=C(/c1ccccc1)c1ccc(OCC(O)CNCCN2CCOCC2)cc1)c1ccccc1 (configuration not stated)	1.74	3.32	1.86	4.02	3.97	15	1.67	3.09	3.87	14.5	2.43	7.17	1.75	3.25	1.66	4.02
O=C(c1ccc2ccccc2c1)c1nc2cc(F)ccc2[n+]([O-])c1C(F)(F)F	31.6	> 100	18.4	33.1	8.36	21.6	15.2	28.6	13	29.1	16.3	29.9	15.9	30.3		
Cn1c(=O)n(C)c2cc(CNCCNc3ccnc4cc(Cl)ccc34)ccc21	23.1	71.8	17.9	54.5	37.4	> 100	15.8	31.9	48.8	> 100	30.8	> 100	16	30.2	16.3	48.2
COc1cc([C@@H]2c3cc4c(cc3[C@H](OC(C)=O)[C@H]3COC(=O)[C@@H]23)OCO4)cc(OC)c1OC	0.379	> 100	0.29	2.63	0.401	> 62.5	0.0787	0.469	0.333		0.317		0.729	> 100	0.153	> 100
COc1cc(F)ccc1-c1cc(Nc2cc(CS(C)(=N)=O)ccn2)ncc1F (configuration not stated)	0.0446	> 47	0.0293	> 100	0.0571	> 100	0.107	> 100	0.0982	1.24	0.0803	> 100	0.102	5.44	0.0174	1.29
CN(Cc1ccc(F)cc1)c1ccc(CO)c(Cl)c1	10.5	30.4	0.412	11.9	0.476	3.47	44.7	> 100	11.6	> 72.7	3.55	15	31.3	> 100	20.3	73.8
CC(=O)c1cccc(NC(=O)C(=O)c2c(O)c3ccccc3oc2=O)c1		> 100		> 100		> 100		> 100		> 100		> 100		> 100		> 100
C=C1C(=O)O[C@H]2[C@H]1CC/C(COC(=O)NCc1ccc(Cn3c(=O)sn(CCCCC)c3=O)cc1)=C\CC[C@@]1(C)O[C@@H]21	1.98	4.23	1.73	3.7	2.11	4.8	1.71	3.5	1.94	4.1	1.41	2.75	1.85	3.47	0.3	2.18
ClCc1cccc(Cn2cnc3c(Cl)nc(Cl)nc32)c1	12.4	26.8	1.64	3.12	2.27	5.18	1.69	3.26	2.14	5.09	1.59	3.21	2.34	5.38	2.49	> 100
CCN1[C@@H](C(=O)NC23CCC(C(=O)O)(CC2)CC3)[C@H](c2cccc(Cl)c2F)[C@]2(C(=O)Nc3cc(Cl)ccc32)C12CCCCC2	2.94	12.1	0.104	3.11	0.99	15.5	2.92	10.7	3.53	17.4	2.53	7.74	3.71	14	0.0146	4.72
COc1cc(OC)c2sc(-c3ccc(-n4cncc4-c4ccc(OC)c(OC)c4)cc3)nc2c1	> 100	> 100	5.48	> 100	56.1	> 100			> 100	> 100	3.85	35.9	> 100	> 100	3.03	> 100

Compound	GI50 [1] [µM]	TGI [1] [µM]	GI50 [2] [µM]	TGI [2] [µM]	GI50 [3] [µM]	TGI [3] [µM]	GI50 [4] [µM]	TGI [4] [µM]	GI50 [5] [µM]	TGI [5] [µM]	GI50 [6] [µM]	TGI [6] [µM]	GI50 [7] [µM]	TGI [7] [µM]	GI50 [8] [µM]	TGI [8] [µM]
CCCC1(CN2c3ccccc3Sc3ccc(Cl)cc32)CCN(CC)C1 (configuration not stated)	1.89	3.52	1.81	3.29	1.92	3.69	1.79	3.47	1.75	3.55	1.61	3.09	1.92	3.48	3.17	> 100
Cc1cc(NCc2cc(Nc3ccnc4cc(Cl)ccc34)ccc2F)nc(N2CCOCC2)n1	1.66	3.12			1.93	5.11			2.43	7.28	1.53	2.95				
COc1ccc(Nc2nc(Nc3cc(C)[nH]n3)c3cc(OC)c(OC)cc3n2)cc1	1.49	3.02					1.23	2.58	1.16	2.82	1.01	2.26	1.7	3.26	0.386	> 100
CSc1ncnc2c1ncn2CC(=O)C1CCC2C3CCC4=CC(=O)CCC4(C)C3CCC12C (configuration not stated)		> 100		59.2		> 100		10		35.2		25.8		28.2		5.56
COc1ccc(-c2cnnn2-c2nonc2-n2cccc2)cc1OC	7.15	> 100	4.19	> 100	5.13	> 100	0.716	3.01	4.09	> 100	3.97	> 100	7.74	> 100	1.9	> 100
Cc1cc(CCl)c(C)cc1CCl	2.19		1.48	6.58	1.47	6.25	1.84	4.69	3.77	18.5	1.76	4.04	2.49	6.66	0.114	8.83
O=C(CC1(O)C(=O)Nc2ccc(F)cc21)c1ccc(C(=O)NCC2CCC3(CC2)OOC2(CCCCC2)OO3)cc1 (configuration not stated)	2	3.81	8.66	32	1.64	6.63	3.04	10.8	3.62	19.9	1.85	4.18	13.9	32.4		
COc1ccc(-c2c(C#N)c(N)nc(N3CCOCC3)c2C#N)cc1	20.7	76.6	17.7	65.2	3.08	21	28.5	> 100			12.9	45.4	33.9	> 100		
CN(C)N1C(=O)SCC(c2ccccc2)(c2ccccc2)C1=O		> 100		> 100				> 100		> 100		> 100		> 100		> 100
NC(=O)c1cccnc1	> 100	> 100	> 100	> 100			> 100	> 100	> 100	> 100	> 100	> 100	> 100	> 100	59.8	> 100
CCCN(CCC)c1ccc(C=O)c(Cl)c1	20	53	2.2	19	0.558	7.18	25.2	> 87.8	25.6	> 100	1.67	6.7	20	68.9		
Cn1cc(-c2cc(-c3cn(C)c4ccc(Cl)cc34)[nH]n2)c2cc(Cl)ccc21	3.41	11.4	3.82	15.8	2.55	6.37			2.48	7.69	4.41	40.6	4.8	79.6	2.36	7.71
O=C(NN1C(=O)CSC1c1cccc(Cl)c1)C(O)c1ccccc1 (configuration not stated)	> 100	> 100	83.8	> 100	> 100	> 100	> 100	> 100	56.3	> 100	33.8	> 100	> 100	> 100		
COc1ccc2c(c1)C(=O)/C(=C/c1cccc(OCC(=O)Nc3nc(C)c(C)s3)c1)O2	0.0238	0.0545	0.17	0.564			2.95	13.3	0.0547	0.715	0.0179	0.0366	0.504	1.72	0.0184	0.0364
CC(C)(C)NCC(O)COc1c(Br)c(Br)c(Br)c2c1OC(C)(C)C2 (configuration not stated)	1.58	3.21			1.77	3.36	2.02	3.96			1.54	3.11	1.81	3.29	1.66	3.29
COc1cc(C2=NN(C(C)=O)C(c3cc(OC)c(OC)c(OC)c3)C2)ccc1O (configuration not stated)	0.458	> 100	0.385	> 73.6	0.584	> 100			0.51	> 100	0.289	5.21	0.478	> 100	0.0985	
